Experimental data taken from patent EP0688431B1, “METHOD FOR SCREENING CATALYTIC NON-ENZYME POLYPEPTIDES AND PROTEINS” (YEDA RESEARCH AND DEVELOPMENT CO. LTD., priority 1993, dated 1994).

Biological target: antibody D2.3
Assay: Binding of the product to the catalytic antibody
Design: species or system Balb/c mice
Conditions: binding to antibody D2.3

O=[N+]([O-])c1ccc(CO)cc1 [p-nitrobenzyl alcohol]
Kd: 52 µM
